Calls of active or inactive are those of the source. No cut-off for these calls is given here.
How the values were obtained:
MFC [1] = assay: Antitumor activity against mouse MFC cells xenografted in 615 mouse assessed as increase in infiltration of CD3+ T cells into tumor at 10 to 50 mg/kg, po for 14 days by immunohistochemistry; assay type: functional, organism-based; details: dose 10-50 mg/kg, time 14.0 day
BGC-823 [2] = assay: Anticancer activity against human LSD1 knockout BGC-823 cells assessed as increase in CD3/CD28 activated T-cell killing response at 5 to 20 uM incubated for 5 days by DAPI staining based assay; assay type: functional; details: dose 5-20 µM, time 5.0 day
MAO-A = target: T1, MAO-A (Homo sapiens, UniProt P21397); assay: Inhibition of recombinant human MAO-A at 10 uM
T1 sequence (P21397 whole entry): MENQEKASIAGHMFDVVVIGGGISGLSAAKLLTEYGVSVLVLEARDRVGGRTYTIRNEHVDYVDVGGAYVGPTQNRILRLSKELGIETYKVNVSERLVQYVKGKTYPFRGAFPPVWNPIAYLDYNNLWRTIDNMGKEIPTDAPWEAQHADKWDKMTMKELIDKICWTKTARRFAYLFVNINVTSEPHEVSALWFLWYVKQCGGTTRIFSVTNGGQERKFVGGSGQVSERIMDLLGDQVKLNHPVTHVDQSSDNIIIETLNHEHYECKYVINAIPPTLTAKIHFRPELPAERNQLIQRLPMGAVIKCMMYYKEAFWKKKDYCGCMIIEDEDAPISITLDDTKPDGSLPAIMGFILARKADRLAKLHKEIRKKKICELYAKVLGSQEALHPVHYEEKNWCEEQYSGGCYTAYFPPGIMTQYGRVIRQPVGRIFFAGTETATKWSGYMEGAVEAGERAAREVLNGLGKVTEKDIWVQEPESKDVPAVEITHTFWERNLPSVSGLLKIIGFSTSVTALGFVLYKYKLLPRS

[3] = Toxicity against 615 mouse xenografted with mouse MFC cells in assessed as pathological changes in kidney at 10 to 50 mg/kg, po for 14 days by Hematoxylin and Eosin staining based microscopic analysis; assay type: organism-based; details: in vivo, 336 h, dose 10-50 mg/kg, time 14 day
[4] = Toxicity against 615 mouse xenografted with mouse MFC cells in assessed as pathological changes in liver at 10 to 50 mg/kg, po for 14 days by Hematoxylin and Eosin staining based microscopic analysis; assay type: organism-based; details: in vivo, 336 h, dose 10-50 mg/kg, time 14 day
MFC [5] = assay: Antitumor activity against mouse MFC cells xenografted in 615 mouse assessed as increase in infiltration of CD4+ T cells into tumor at 10 to 50 mg/kg, po for 14 days by immunohistochemistry; assay type: functional, organism-based; details: dose 10-50 mg/kg, time 14.0 day
MFC [6] = assay: Antitumor activity against mouse MFC cells xenografted in 615 mouse assessed as decrease in Ki67 expression in tumor at 10 to 50 mg/kg, po for 14 days by immunohistochemistry; assay type: functional, organism-based; details: dose 10-50 mg/kg, time 14.0 day
[7] = target: T2, Lysine-specific histone demethylase 1A (Homo sapiens, UniProt O60341); assay: Inhibition of human LSD1 in human LSD1 knockout BGC-823 cells assessed as effect on H3K4me2 methylation at 5 to 20 uM incubated for 5 days by Western blot anlaysis; assay type: cell-based; details: dose 5-20 µM, time 5.0 day
MFC [8] = assay: Antitumor activity against mouse MFC cells xenografted in 615 mouse assessed as increase in IL-2 expression level in tumor at 10 to 50 mg/kg, po for 14 days by ELISA; assay type: functional, organism-based; details: dose 10-50 mg/kg, time 14.0 day
[9] = Toxicity against 615 mouse xenografted with mouse MFC cells in assessed as pathological changes in heart at 10 to 50 mg/kg, po for 14 days by Hematoxylin and Eosin staining based microscopic analysis; assay type: organism-based; details: in vivo, 336 h, dose 10-50 mg/kg, time 14 day
MFC [10] = assay: Downregulation of PD-L1 expression in mouse MFC cells at 5 to 20 uM incubated for 5 days by Western blot anlaysis; assay type: functional, cell-based; details: dose 5-20 µM, time 5.0 day
BGC-823 [11] = assay: Anticancer activity against human BGC-823 cells assessed as increase in CD3/CD28 activated T-cell killing response by measuring TNFalpha level at 5 to 20 uM incubated for 5 days by Sandwich ELISA; assay type: functional, cell-based; details: dose 5-20 µM, time 5.0 day
MFC [12] = assay: Antiproliferative activity against mouse MFC cells assessed as inhibition of cell proliferation incubated for 48 hrs by SRB assay; assay type: functional, cell-based
MFC [13] = assay: Antitumor activity against mouse MFC cells xenografted in 615 mouse assessed as tumor growth suppression at 10 to 50 mg/kg, po for 14 days; assay type: functional, organism-based; details: dose 10-50 mg/kg, time 14.0 day
MFC [14] = assay: Antitumor activity against mouse MFC cells xenografted in 615 mouse assessed as increase in IL-2 mRNA expression level in tumor at 10 to 50 mg/kg, po for 14 days; assay type: functional, organism-based; details: dose 10-50 mg/kg, time 14.0 day
MFC [15] = assay: Antitumor activity against mouse MFC cells xenografted in 615 mouse assessed as increase in IFNgamma mRNA expression level in tumor at 10 to 50 mg/kg, po for 14 days; assay type: functional, organism-based; details: dose 10-50 mg/kg, time 14.0 day
BGC-823 [16] = assay: Antiproliferative activity against human BGC-823 cells assessed as inhibition of cell proliferation incubated for 48 hrs by SRB assay; assay type: functional, cell-based
MFC [17] = assay: Downregulation of PD-L1 expression in mouse MFC cell membrane at 5 to 20 uM incubated for 5 days by Western blot anlaysis; assay type: functional, cell membranes; details: dose 5-20 µM, time 5.0 day
BGC-823 [18] = assay: Downregulation of PD-L1 expression in human BGC-823 cell membrane at 5 to 20 uM incubated for 5 days by Western blot anlaysis; assay type: functional, cell membranes; details: dose 5-20 µM, time 5.0 day
[19] = target: Programmed cell death protein 1/Programmed cell death 1 ligand 1 (Homo sapiens) (UniProt Q15116+Q9NZQ7); assay: Inhibition of PD-L1/PD-1 interaction in human BGC-823 cells assessed as decrease in binding of PD-1 to cell membrane at 5 to 20 uM incubated for 5 days followed by recombinant PD-1-Fc protein addition by confocal microscopy analysis; assay type: cell-based; details: dose 5-20 µM, time 5.0 day
BGC-823 [20] = assay: Downregulation of PD-L1 expression in human LSD1 knockout BGC-823 cells at 5 to 20 uM incubated for 5 days by Western blot anlaysis; assay type: functional, cell-based; details: dose 5-20 µM, time 5.0 day
[21] = Toxicity against 615 mouse xenografted with mouse MFC cells in assessed as pathological changes in spleen at 10 to 50 mg/kg, po for 14 days by Hematoxylin and Eosin staining based microscopic analysis; assay type: organism-based; details: in vivo, 336 h, dose 10-50 mg/kg, time 14 day
[22] = Toxicity against 615 mouse xenografted with mouse MFC cells in assessed as body weight change in tumor at 10 to 50 mg/kg, po for 14 days; assay type: organism-based; details: in vivo, 336 h, dose 10-50 mg/kg, time 14 day
[23] = target: T2, Lysine-specific histone demethylase 1A; assay: Inhibition of human LSD1 in human BGC-823 cells assessed as inhibition of H3K4me1 demethylation at 5 to 20 uM incubated for 5 days by Western blot anlaysis; assay type: cell-based; details: dose 5-20 µM, time 5.0 day
MFC [24] = assay: Antitumor activity against mouse MFC cells xenografted in 615 mouse assessed as increase in IFNgamma expression level in tumor at 10 to 50 mg/kg, po for 14 days by ELISA; assay type: functional, organism-based; details: dose 10-50 mg/kg, time 14.0 day
[25] = target: T2, Lysine-specific histone demethylase 1A; assay: Inhibition of recombinant LSD1 (unknown origin) expressed in Escherichia coli BL21 (DE3) using H3K4me2 peptide as substrate incubated for 30 mins by fluorescence based microplate reader assay
MFC [26] = assay: Antitumor activity against mouse MFC cells xenografted in 615 mouse assessed as increase in infiltration of CD8+ T cells into tumor at 10 to 50 mg/kg, po for 14 days by immunohistochemistry; assay type: functional, organism-based; details: dose 10-50 mg/kg, time 14.0 day
BGC-823 [27] = assay: Downregulation of PD-L1 mRNA expression in human BGC-823 cells at 5 to 5 to 20 uM incubated for 5 days; assay type: functional, cell-based; details: dose 5-20 µM, time 5.0 day

c1ccc2c(c1)Sc1ccccc1N2CCN1CCOCC1
Activity (MFC [1]): Active
Activity (BGC-823 [2]): inactive
inhibition at 10 µM (MAO-A): < 10%
Activity [3]: Non-Toxic
Activity [4]: Non-Toxic
Activity (MFC [5]): Active
Activity (MFC [6]): Active
inhibition [7]: inactive
Activity (MFC [8]): Active
Activity [9]: Non-Toxic
Activity (MFC [10]): Dose-Dependent Effect
Activity (BGC-823 [11]): Active
Activity (MFC [12]): inactive
Activity (MFC [13]): Dose-Dependent Effect
Activity (MFC [14]): Active
Activity (MFC [15]): Active
Activity (BGC-823 [16]): inactive
Activity (MFC [17]): Dose-Dependent Effect
Activity (BGC-823 [18]): Dose-Dependent Effect
inhibition [19]: Dose-Dependent Effect
Activity (BGC-823 [20]): inactive
Activity [21]: Non-Toxic
Activity [22]: Non-Toxic
inhibition [23]: Active
Activity (MFC [24]): Active
IC50 [25]: 247 nM
Activity (MFC [26]): Active
Activity (BGC-823 [27]): Dose-Dependent Effect
